{"source": "patent US7939554B2", "about": "“Protein phosphatase inhibitors” (The Cleveland Clinic Foundation, priority 2006, dated 2011)", "key": {"B16 melanoma tumors": {"system": "B16 melanoma tumors", "test": "B16 melanoma tumor growth in athymic nude mice", "assay_type": "in vivo, mouse", "conditions": "3 mg/kg/day, oral", "description": "To assess L5 anti-tumor activity, C57BL/6J mice or athymic nude mice (˜8-week old, female, Taconic Farms, Germantown, N.Y.) were inoculated (s.c.) at the flanks with B16 melanoma cells (4×10^4 cells/site). Four days post-inoculation, the mice were treated with PBS (Control) or L5 (˜3 mg/kg body weight/daily, Monday-Friday/week, oral gavage). Tumor volume (n=5) was measured during the study period and calculated using the formula for a prolate spheroid. Student's t test was used for assessing the significance of tumor volume differences among differential treatment groups. Mouse viability (daily) and body weights (weekly) were also recorded during the study period. Major internal organs of the mice were inspected visually upon their termination at the end of the experiment."}, "[1]": {"test": "toxicity in mice (viability)", "assay_type": "in vivo, mouse", "conditions": "10 mg/kg, daily, s.c., two weeks", "protocol": "FIG. 3 illustrates differential toxicity of L5 and L6. Jurkat cells were cultured in the absence or presence of lead compound #5 (L5) (A) or #6 (L6) (B) for 6 days prior to quantification of cell growth by MTT assays. Data represent mean±SD of triplicate samples. Balb/c mice were treated with L5 (˜10 mg/kg body weight, s. c., daily, M-F/wk) for two weeks to assess its toxicity in vivo (C).\nSpleens were harvested one hour post-treatment on day 4 and processed into splenocytes, which were used for assessing pLck levels by SDS-PAGE/Western blotting and for quantification of IFNγ+ cells by ELISPOT assays. Mice were also treated with L5 (˜10 mg/kg body weight, daily, s. c., n=2) to evaluate the toxicity of the compounds in vivo."}, "intracellular SHP-1": {"biological_target": "T1, intracellular SHP-1 (Homo sapiens, UniProt P29350)", "T1 construct": "endogenous in cells; host or cells: Jurkat", "T1 sequence (P29350 whole entry)": "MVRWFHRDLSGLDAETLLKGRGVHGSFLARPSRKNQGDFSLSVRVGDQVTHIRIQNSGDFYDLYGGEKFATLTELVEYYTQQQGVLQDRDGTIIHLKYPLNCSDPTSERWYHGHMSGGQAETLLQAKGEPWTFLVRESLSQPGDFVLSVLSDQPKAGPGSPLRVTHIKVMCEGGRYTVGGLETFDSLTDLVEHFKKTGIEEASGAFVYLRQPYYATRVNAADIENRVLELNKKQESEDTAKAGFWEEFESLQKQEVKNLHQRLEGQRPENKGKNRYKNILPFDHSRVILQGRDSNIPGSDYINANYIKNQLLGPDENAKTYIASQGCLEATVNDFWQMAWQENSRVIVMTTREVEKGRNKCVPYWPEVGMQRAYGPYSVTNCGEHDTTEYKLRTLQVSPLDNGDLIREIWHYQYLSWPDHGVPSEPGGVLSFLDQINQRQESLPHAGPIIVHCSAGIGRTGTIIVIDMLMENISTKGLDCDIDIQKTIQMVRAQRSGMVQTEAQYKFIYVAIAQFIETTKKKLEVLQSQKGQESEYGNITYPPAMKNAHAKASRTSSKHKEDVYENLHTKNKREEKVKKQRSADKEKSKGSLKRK", "test": "tyrosine phosphorylation of SHP-1 substrates in Jurkat cells (SDS-PAGE/Western blotting, densitometry)", "assay_type": "cell-based", "conditions": "for level capable of inhibiting intracellular SHP-1: Jurkat T cells", "protocol": "(§1) Jurkat cells in culture medium (3×10^6 cells/ml, 1 ml/tube) were treated with agents for designated times at room temperature. After brief centrifuging in a microfuge (4,000 rpm, 2 min), the cell pellet was lysed on ice for 30 min in 1001 of cold lysis buffer (1% NP40, 50 mM Tris, pH 7.4, 150 mM NaCl, 20 mM NaF, 0.2 mM Na3VO4 and 1 mM Na3MO4) containing a cocktail of proteinase inhibitors (Sigma, 1 tablet/10 ml). The lysates were cleared by centrifuging (14,000 rpm, 10 min) in a microfuge at 4° C. to remove insoluble parts, mixed with equal volume of 2×SDS-PAGE sample buffer, boiled for 5 min and analyzed (˜3×10^5 cells/well) by SDS-PAGE/Western blotting. Relative intensities of phosphotyrosine bands were quantified through densitometry analysis.\nas §1, with “100 μl” for “1001”, “blotting as described previously (23, 24).” for “blotting.”\nas §1, with “100 μl” for “1001”, “blotting as described previously (17, 18).” for “blotting.”"}, "mouse splenocytes": {"system": "mouse splenocytes", "test": "induction of IFNγ+ cells in mouse splenocytes in vitro (ELISPOT)", "assay_type": "cell-based", "protocol": "The splenocytes were cultured in RPMI 1640 medium supplemented with 10% FCS in the absence or presence of designated agents for 16 hrs in flat-bottom 96-well plates coated with a monoclonal antibody specific for mouse IFNγ (mouse IFNγ ELISPOT Kit, R & D System). The plates were then processed for in situ detection of IFNγ+ cells by ELISA following the manufacturer's procedure. Scanning and counting of IFNγ+ cells in the plates were accomplished using an automatic ELISPOT reader with Immunospot2 software (Cellular Technology Ltd). Mouse splenocytes were also untreated or treated with agents for 16 hrs in culture dishes and then stained with appropriate isotype control antibodies or FICT-labeled anti-CD3 monoclonal antibody (BD) plus PE-labeled monoclonal antibody (BD) for intracellular IFNγ following established procedures. The stained samples were washed 3 times, re-suspended in 200 μl of 1% para-formaldehyde solution and analyzed (20,000 cells/sample) using a BD FACS Caliburs cytometer and WinList software.\nThe splenocytes were cultured in RPMI 1640 medium supplemented with 10% FCS in the absence or presence of designated agents for 16 hrs in flat-bottom 96-well plates coated with a monoclonal antibody specific for mouse IFNγ (mouse IFNγ ELISPOT Kit, R & D System). The plates were then processed for in situ detection of IFNγ+ cells by ELISA following the manufacturer's procedure. Scanning and counting of IFNγ+ cells in the plates were accomplished using an automatic ELISPOT reader with Immunospot2 software (Cellular Technology Ltd)."}}, "data": [{"compound": "O=C1C=CC(=O)C(c2cc(Cl)ccc2Cl)=C1", "note": "[L5]", "values": [{"measurement": "B16 tumor growth in T-cell-deficient mice", "setting": "B16 melanoma tumors", "value": "not inhibited"}, {"measurement": "mouse viability", "setting": "[1]", "value": "all alive"}, {"measurement": "pLck-pY394 induction", "setting": "intracellular SHP-1; 0.01 μg/ml, 10 min", "value": "2-3 fold"}, {"measurement": "pSlp76 level", "setting": "intracellular SHP-1; 0.01, 0.1, 1 or 3 μg/ml", "value": "obviously increased"}, {"measurement": "pZap70 level", "setting": "intracellular SHP-1; 0.01, 0.1, 1 or 3 μg/ml", "value": "obviously increased"}, {"measurement": "pLck-pY394 induction", "setting": "intracellular SHP-1; 0.1, 1 or 3 μg/ml, 10 min", "value": "> 4", "unit": "folds"}, {"measurement": "dose effective in inducing pLck-pY394 (lowest / only effective dose)", "setting": "intracellular SHP-1; 10 min treatment", "value": 0.01, "unit": "μg/ml"}, {"measurement": "level capable of inhibiting intracellular SHP-1", "setting": "intracellular SHP-1", "value": 10, "unit": "ng/mL"}, {"measurement": "level capable of inhibiting intracellular SHP-1", "setting": "intracellular SHP-1; molar equivalent", "value": "~40", "unit": "nM"}, {"measurement": "pLAT level", "setting": "intracellular SHP-1; L5-treated Jurkat cells", "value": "induced"}, {"measurement": "potency relative to SSG", "setting": "intracellular SHP-1; by weight", "value": "approximately 1,000 fold"}, {"measurement": "potency relative to SSG", "setting": "intracellular SHP-1; in equal molar ratios", "value": "~350", "unit": "fold"}, {"measurement": "pLck-pY394 induction versus untreated control", "setting": "intracellular SHP-1; lead compounds, 10 min, densitometry, FIG. 2", "value": "~10", "unit": "fold"}, {"measurement": "induction of IFNγ+ cells", "setting": "mouse splenocytes; 0.001 μg/ml, 16 hrs", "value": "inactive"}, {"measurement": "increase of IFNγ+ cells in splenocytes", "setting": "mouse splenocytes; 1 μg/ml, 16 hrs", "value": "~14", "unit": "fold"}, {"measurement": "increase of IFNγ+ cells in splenocytes", "setting": "mouse splenocytes; 3 μg/ml, 16 hrs", "value": "~26", "unit": "fold"}, {"measurement": "increase of IFNγ+ cells in splenocytes", "setting": "mouse splenocytes; 10 μg/ml, 16 hrs", "value": "~17", "unit": "fold"}, {"measurement": "increase of IFNγ+ cells in splenocytes", "setting": "mouse splenocytes; 30 μg/ml, 16 hrs", "value": "~10", "unit": "fold"}, {"measurement": "minimal effective dose for IFNγ+ cell induction", "setting": "mouse splenocytes; FIG. 11", "value": 10, "unit": "ng/mL"}, {"measurement": "induction of IFNγ+ cells", "setting": "mouse splenocytes; low doses (0.01 to 1 μg/ml), same mouse, FIG. 16", "value": "3-4 fold"}, {"measurement": "effectiveness relative to SSG in inducing IFNγ+ cells", "setting": "mouse splenocytes; maximal induction at a comparable dose, mouse splenocytes", "value": "~58", "unit": "fold"}]}]}
